Consider three compounds from patent US20190169140A1, “IDO1 INHIBITOR AND PREPARATION METHOD AND APPLICATION THEREOF” (SHANDONG LUYE PHARMACEUTICAL CO., LTD., priority 2016, published 2019).

The nature of series [1]: Liver microsome stability, mouse. In kind it is in vitro ADME, CD-1 mice. The following applies: mouse liver microsomes; for CLint scaled: CD-1, read-out: Intrinsic clearance; for Remaining % (60 min): 37° C. Here is the method:
The purpose of research in the present experiment is assessing phase I metabolic stability of the sample for test in CD-1 mice, SD rats, and human liver microsomes.
The animals and human liver microsomes used in this test system were purchased from BD Gentest, Xenotech, Corning or BioreclamationIVT, and stored in a refrigerator at −80° C. before use.
The sample for test and control were incubated together with the microsomes under a condition of 37° C. for 60 minutes, and a cold acetonitrile solution (or other organic solvents) containing an internal standard substance was added at a designated time point to terminate the reaction. After centrifugation, a resultant supernatant was assayed in a semiquantitative manner through liquid chromatography tandem mass spectrometry (LC/MS/MS). Software Analyst (AB Sciex, Framingham, Mass., USA) was used for processing retention time of analyte and internal standard, and achieving chromatogram collection, and chromatogram integration
An in vitro elimination rate constant ke of the sample was obtained by converting a ratio of the sample to a peak area of the internal standard to remaining percentage, to calculate an in vitro elimination rate and half-life of the sample for test.
A general note: Microsomes from liver hold many membrane-bound enzymes, among them those of drug oxidation.

Another series has as its target T1, CYP2D6 (Homo sapiens, UniProt P10635).
T1 construct: tissue Corning Inc. or XenoTech, LLC. or other suppliers; host or cells: mixed human liver microsomes
Nature of the series: Inhibition on human liver microsome CYP2D6. In kind it is in vitro ADME. The following applies: human liver microsomes; for IC50: 5-in-1 probe substrate. The procedure:
The research project aimed at evaluating inhibitory ability of a sample for test on human liver microsome cytochrome P450 isozymes (CYP1A2, CYP2C9, CYP2C19, CYP2D6, and CYP3A4) with use of a 5-in-1 probe substrate for CYP isozymes.
Mixed human liver microsomes (HLM) were purchased from Corning Inc. (Steuben, N.Y., USA) or XenoTech, LLC. (Lenexa, Kans., USA) or other suppliers, and stored in a condition below −70° C. before use.
Diluted working solutions of the sample for test in serial concentrations were added to an incubation system containing the human liver microsomes, probe substrate, and accessory factors of a cycling system, and a control containing no sample for test but a solvent was taken as a control for enzymatic activity (100%). Concentration of metabolites generated by the probe substrate in the sample was measured with a method of liquid chromatography-tandem mass spectrometry (LC-MS/MS). Nonlinear regression analysis of mean percentage activity vs concentration of the sample for test was carried out using SigmaPlot (V.11). An IC^50 value was calculated through a three-parameter or four-parameter inflection logarithmic equation.

The nature of series [2]: Pharmacokinetics experiment of mice in vivo, single intravenous injection. Also noted: species or system male CD-1 mice. Conditions: Mouse PK, IV 1 mg/kg; for AUC(0-inf) / AUC(0-t) / Vd / clearance / half-life: male, CD-1, plasma. Here is the method:
The present experiment aimed at researching status of pharmacokinetics of a sample for test in plasma of male CD-1 mice after single intravenous injection.
Three animals in an intravenous group were intravenously injected with the sample for test by 1 mg/kg, and a formulation was 0.2 mg/mL settled solution of 5% DMSO/95% (10% HP-β-CD). 5 minutes, 15 minutes, 30 minutes, 1 hour, 2 hours, 4 hours, 6 hours, 8 hours, and 24 hours after the administration, blood was collected and prepared into a plasma specimen, with an anticoagulant of EDTA-K2. Plasma concentration data was obtained by analyzing the specimen through LC-MS/MS.
The plasma drug concentration data was processed with a non-compartment model using WinNonlin™ Version 6.3 (Pharsight, Mountain View, Calif.) pharmacokinetics software. Following pharmacokinetics parameters were calculated using a log-linear trapezoidal method: elimination phase half-life (T1/2), apparent volume of distribution (Vdss), and clearance rate (CL), mean retention time of drug in body from point 0 to end time point (MRT0-last), mean retention time of drug in body from point 0 to infinite time (MRT0-inf), area under a time-plasma concentration curve from point 0 to end time point (AUC0-last), area under a time-plasma concentration curve from point 0 to infinite time (AUC0-inf), and initial concentration (C0).

Another series has as its system mice colon cancer CT26. Conditions: according to document reports; cited from earlier work.

T1 sequence (P10635 whole entry): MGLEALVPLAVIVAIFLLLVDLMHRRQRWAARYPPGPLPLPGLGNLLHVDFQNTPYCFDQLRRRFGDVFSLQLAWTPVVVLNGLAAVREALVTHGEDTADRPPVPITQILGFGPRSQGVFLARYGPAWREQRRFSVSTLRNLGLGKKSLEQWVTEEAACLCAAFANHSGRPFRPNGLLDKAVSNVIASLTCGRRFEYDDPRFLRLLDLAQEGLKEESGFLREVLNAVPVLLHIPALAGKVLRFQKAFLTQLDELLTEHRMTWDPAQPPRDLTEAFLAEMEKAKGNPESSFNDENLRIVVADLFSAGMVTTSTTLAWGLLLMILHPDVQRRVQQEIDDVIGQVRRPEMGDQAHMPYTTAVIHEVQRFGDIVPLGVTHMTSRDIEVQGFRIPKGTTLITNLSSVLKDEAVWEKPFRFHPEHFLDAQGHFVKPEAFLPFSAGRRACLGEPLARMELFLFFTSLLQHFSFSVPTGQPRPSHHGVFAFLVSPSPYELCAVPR

As for `CC(=O)NCCSc1nonc1/C(=N/O)Nc1ccc(F)c(Br)c1` [Compound 0227], in series [1], the CLint scaled was 275 mL/min/kg, the “metabolic stability in words” value is “metabolized quickly” and the “Remaining % (60 min)” value is on record as 11.0%. The IC50 (in general, the point on the concentration scale where inhibition reaches its midpoint) on CYP2D6 came to 26.1 µM. Also, in series [2], the AUC(0-inf) (commonly total exposure, with the tail of the curve extrapolated) amounted to 0.628 µM·h; the AUC(0-t) (usually the area under the concentration-time curve up to a stated or last time point) was found to be 0.624 µM·h; the Vd (usually a proportionality between amount in the body and measured concentration, not a real space) turned out to be 2.66 L/kg; the clearance (in general, the rate of elimination divided by the concentration) is 64.2 mL/min/kg. Also, the half-life (as a rule, the time in which the quantity being followed falls by half) in series [2] was 0.867 h.

For the compound `NC(=O)NCCSc1nonc1/C(=N/O)Nc1ccc(F)c(Br)c1` [Compound 0231], in series [1], the CLint scaled amounted to 134 mL/min/kg, the “metabolic stability in words” value is reported as “metabolized quickly” and the “Remaining % (60 min)” value was found to be 35.8%. In addition, at CYP2D6, the “inhibiting effect on CYP2D6 in words” value is recorded as “relatively weak effect” and the IC50 was over 50 µM. For the same compound, the “Conc. (8 h)” value in series [2] (plasma, 8 h) is given as 8.16/ND nM. Moreover, in series [2], the AUC(0-inf) is 0.881 µM·h, the AUC(0-t) stood at 0.852 µM·h, the Vd worked out at 4.85 L/kg and the clearance was found to be 55.1 mL/min/kg. Moreover, the half-life in series [2] is 2.44 h.

As for `NS(=O)(=O)NCCNc1nonc1C(=NO)Nc1ccc(F)c(Br)c1` [Compound 360, INCB024360, reference compound], the “growth of tumors in mice colon cancer CT26 model” value with mice colon cancer CT26 is given as “effectively inhibit growth of tumors”.
